Columns and labels:
[1] = test system: Salmonella typhimurium TA100 and TA98, and Escherichia coli WP2 uvrA strains; assay: Miniscreen method, bacterial reverse mutation, with and without metabolic activation; assay type: cell-based; settings: 10-1,000 μg/well; with and without Rat Liver S9mix; positive = revertant colonies twice or more of control
Protocol: (4) Miniscreen Method for Examining Presence of Genetic Toxicity:
Reverse mutation-inducing activity of the test comounds on bacteira was examined by Miniscreen method (Environ. Mol. Mutagen., 35, 72-77). Salmonella typhimurium TA100 and TA98, and Escherichia coli WP2 uvrA strains were used for the test. The test was conducted by plate incorporation method as to both cases where metabolic activation was not conducted, or conducted. The dosages were set at six levels as 0, 10, 50, 100, 500 and 1,000 μg/well.
To the minimum glucose-agar medium formed on a 6-well plate, 0.02 mL of a test compound solution or a solvent, 0.1 mL of 0.1 M sodium-phosphate buffer (pH=7.4), 0.025 mL of the bacterial suspension and 0.5 mL of soft agar solution were added per well and mixed. Where metabolic activation was conducted, 0.1M sodium-phosphate buffer (pH=7.4) was replaced with 0.1 mL of Rat Liver S9mix. After the soft agar solution solidified, the bacterial strains were cultured at 37° C. for 48 hours. At the end of the culture the number of revertant colonies on the plate was visually counted using a colony counter. Reverse mutation inducing activity of each of the test compounds was judged to be positive where the number of the revertant colonies increased by twice or more than that in the solvent-added control well, and judged negative where the increase was equivalent to the control. […]

[2] = test system: Chinese hamster lung fibroblast cells (CHL/IU cells); assay: In vitro micronucleus cell induction test; assay type: cell-based
Protocol: (5) In vitro Micronucleus Cell Induction Test for Examining Genetic Toxicity: Presence of micronucleited cell-inducing activity of the test compounds on cultured cells due to chromosome aberration was examined by in vitro micronucleus test (mutagenesis test, 3, 238-245) by Lab-Tek method. The test was conducted by continuous treatment method, using Chinese hamster lung fibroblast cells (CHL/IU cells). The test compound concentration was set at three levels: 50% proliferation inhibitory concentration (IC50), and at the concentration levels attained by diluting it by common ratio one time and two times. […] One (1) mL of 0.075 M aqueous potassium chloride solution was added and a 5 minutes' hypotonic treatment was conducted at room temperature. After termination of the hypotonic treatment, the cells were fixed with a fixative (methanol: acetic acid=99:1). The slide detached from the chamber was stained with an aqueous […] orange solution (40 μg/mL). […] In the case wherein the micronucleited cells increased by a rate twice or more than that in the control well to which the solvent only had been added, the micronucleited cell induction activity was judged positive, and in the case wherein the increase rate was equivalent to that of the control, negative. The test results were as shown in the following Table 4, concurrently with the results of the test (4).

[3] = background statement; cited from earlier work
steroid sulfatase = target: T1, steroid sulfatase (Homo sapiens, UniProt P08842); settings: background statement; cited from earlier work
T1 sequence (P08842 22-583): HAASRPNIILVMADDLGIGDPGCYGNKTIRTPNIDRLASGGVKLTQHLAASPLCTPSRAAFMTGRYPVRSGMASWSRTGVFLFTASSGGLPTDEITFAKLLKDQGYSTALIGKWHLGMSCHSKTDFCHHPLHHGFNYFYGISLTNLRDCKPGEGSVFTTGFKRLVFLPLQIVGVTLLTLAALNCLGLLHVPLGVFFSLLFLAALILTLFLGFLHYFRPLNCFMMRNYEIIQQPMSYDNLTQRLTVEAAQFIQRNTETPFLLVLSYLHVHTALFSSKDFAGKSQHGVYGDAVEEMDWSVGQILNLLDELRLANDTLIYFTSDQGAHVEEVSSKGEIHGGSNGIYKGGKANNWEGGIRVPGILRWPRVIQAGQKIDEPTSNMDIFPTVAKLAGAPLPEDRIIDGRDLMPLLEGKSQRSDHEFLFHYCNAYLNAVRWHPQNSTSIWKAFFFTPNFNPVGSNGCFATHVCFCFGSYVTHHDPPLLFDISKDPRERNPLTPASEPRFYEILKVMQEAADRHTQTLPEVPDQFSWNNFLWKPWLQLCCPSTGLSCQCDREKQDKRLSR

Row | SMILES | Miniscreen method (reverse mutation inducing activity) [1] | In vitro micronucleited cell induction test [2] | estrogenic activity [3] | steroid sulfatase inhibiting activity (steroid sulfatase)
1 | N#Cc1cc(OS(N)(=O)=O)ccc1N1CCN(CCCC2CCCCC2)CC1 [Example 13, 3-cyano-4-[4-(3-cyclohexylpropyl)piperazin-1-yl]-phenyl-O-sulfamate] | negative | negative |  | 
2 | C[C@]12CC[C@@H]3c4ccc(OS(N)(=O)=O)cc4CC[C@H]3[C@@H]1CCC2=O [EMATE, estrone-3-sulfamate] |  |  | potent estrogenic activity | potent steroid sulfatase inhibiting activity
3 | CCCCCCCCCCCCCC(=O)NCCc1ccc(OS(N)(=O)=O)cc1 [DU-14, 4-(2-myristoylaminoethyl)phenyl sulfamate] |  |  | free from estrogenic activity | low level of steroid sulfatase inhibiting activity
